From patent US20230295163A1, “TETRACYCLIC DERIVATIVE, METHOD FOR PREPARING SAME AND USE THEREOF IN MEDICINE” (ZHEJIANG HISUN PHARMACEUTICAL CO., LTD., priority 2020, published 2023)

Molecular target: T1, hERG potassium ion channel (Homo sapiens, UniProt Q12809)
T1 construct: host or cells: CHO
Experiment: Inhibition of hERG potassium ion channel (QPatch, CHO hERG cells)
Type: cell-based
Protocol: 1.1 The cells used in this experiment were CHO cell line (provided by Sophion Bioscience, Denmark) transfected with hERG cDNA and stably expressing hERG channels, with a cell generation of 17. The cells were cultured in a medium containing the following components (all obtained from Invitrogen): Ham's F12 medium, 10% (v/v) inactivated fetal bovine serum, 100 μg/mL hygromycin B, and 100 μg/mL geneticin.
1.2 CHO hERG cells were cultured in a petri dish containing the above culture medium in an incubator containing 5% CO2 at 37° C. 24 to 48 h before the electrophysiological experiment, CHO hERG cells were transferred to a round glass slide placed in a petri dish, and cultured in the same medium and conditions as above. The density of CHO hERG cells on each round glass slide met the requirement that the majority of cells were independent and individual.
A fully automated QPatch system (Sophion, Denmark) was used for whole-cell current recordings. Cells were clamped at a voltage of −80 mV. […]
After reaching a membrane-permeable whole-cell configuration state during the initial phase, the cells were recorded for at least 120 s to reach stabilization. […]
The test data were analyzed by analysis software Qpatch provided by Sophion, Excel, Graphpad Prism, and the like.

T1 sequence (Q12809 whole entry): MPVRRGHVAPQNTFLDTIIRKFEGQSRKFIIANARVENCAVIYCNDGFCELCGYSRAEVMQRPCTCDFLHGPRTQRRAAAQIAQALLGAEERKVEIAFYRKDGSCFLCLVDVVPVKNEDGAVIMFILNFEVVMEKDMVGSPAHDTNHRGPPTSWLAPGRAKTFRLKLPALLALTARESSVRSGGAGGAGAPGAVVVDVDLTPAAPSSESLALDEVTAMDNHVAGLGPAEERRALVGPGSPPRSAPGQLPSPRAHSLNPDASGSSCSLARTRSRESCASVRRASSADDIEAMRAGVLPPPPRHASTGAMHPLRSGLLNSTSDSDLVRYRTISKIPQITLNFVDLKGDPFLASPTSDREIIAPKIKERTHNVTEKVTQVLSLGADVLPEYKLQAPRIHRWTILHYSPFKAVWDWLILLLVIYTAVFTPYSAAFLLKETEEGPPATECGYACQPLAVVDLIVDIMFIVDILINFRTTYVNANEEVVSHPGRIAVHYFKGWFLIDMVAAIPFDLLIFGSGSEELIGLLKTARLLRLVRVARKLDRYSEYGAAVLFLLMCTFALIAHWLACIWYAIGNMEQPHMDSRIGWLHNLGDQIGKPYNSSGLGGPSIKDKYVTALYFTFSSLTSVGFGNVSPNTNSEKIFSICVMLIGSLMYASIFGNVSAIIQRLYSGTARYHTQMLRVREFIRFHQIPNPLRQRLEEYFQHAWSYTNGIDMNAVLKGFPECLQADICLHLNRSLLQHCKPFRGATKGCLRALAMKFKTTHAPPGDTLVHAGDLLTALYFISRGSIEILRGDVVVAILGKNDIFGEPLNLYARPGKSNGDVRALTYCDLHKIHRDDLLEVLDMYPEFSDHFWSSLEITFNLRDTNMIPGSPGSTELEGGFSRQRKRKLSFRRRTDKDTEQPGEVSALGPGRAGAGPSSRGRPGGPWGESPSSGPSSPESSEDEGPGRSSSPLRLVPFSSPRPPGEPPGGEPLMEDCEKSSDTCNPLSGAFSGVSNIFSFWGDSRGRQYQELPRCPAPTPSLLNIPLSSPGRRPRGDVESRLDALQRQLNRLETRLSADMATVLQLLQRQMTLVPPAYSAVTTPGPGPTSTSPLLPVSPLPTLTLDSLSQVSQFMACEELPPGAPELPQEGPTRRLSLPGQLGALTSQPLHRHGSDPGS

## C=CC(=O)N1C[C@@H]2C(=O)N(C)c3c(c4cc(Cl)c(-c5c(O)cccc5F)nc4n(-c4c(SC)ccnc4C(C)C)c3=O)N2C[C@H]1C (single isomer, unassigned) [Compound 17]
  Inhibitory effect on heart hERG potassium ion channel (in words): no obvious inhibitory effect
Highest test concentration 30 μM
  IC50: > 30 µM
